Tests used:
[1] = system: human hair follicle dermal papilla cells (HFDPC); assay: Cell proliferation assay (SRB), HFDPC; format: cell-based; details: 1, 10 and 50 μg/ml, 72 hours
Protocol: (§1) In order to observe the cell proliferation effect on human hair follicle dermal papilla cells, human hair follicle germinal matrix cells, and human umbilical vein endothelial cells, which are main hair cells, each type of cells were seeded on a 96-well plate at a density of 3×10^3 cells/well, followed by incubation under conditions of 37° C. and 5% CO2 for 24 hours. After the medium was exchanged with the same culture medium completely excluding serum, the cells were treated with the peptides at different concentrations (1 μg/ml, 10 μg/ml, and 50 μg/ml), followed by incubation under the same conditions for 72 hours. After the incubation supernatant was removed, the cells were immobilized using ethanol, and washed three times with phosphate buffer saline (PBS). The wash solution was removed, and the cells were stained through the treatment with colorimetric SRB solution. After the cells were sufficiently washed with 1% acetic acid, the cells were observed using a microscope to observe the state of living cells. The absorbance was read at UV light of 560 nm, thereby measuring the survival conditions of cells

[2] = system: human umbilical vein endothelial cells (HUVEC); assay: Cell proliferation assay (SRB), HUVEC; format: cell-based; details: 1, 10 and 50 μg/ml, 72 hours
Protocol: as §1

MC3T3-E1 cells = assay: ALP staining of MC3T3-E1 cells; format: cell-based, mouse; details: MC3T3-E1, 10 μg/ml and 50 μg/ml, 14 days
Protocol: The mouse osteoblast line, MC3T3-E1 cells were seeded on a 24-well plate at 4×10^4 cells/well, and then incubated overnight. After the exchange with a medium containing 50 μg/ml ascorbic acid+10 mM b-glycerophosphate, the cells were treated with each peptide at concentrations of 10 μg/ml and 50 μg/ml, and incubated for 14 days to induce differentiation. Here, the medium exchange every three days and the treatment with the peptide were repeated (positive control: BMP2 […]). The incubation-completed plate well was washed two times with PBS, and then the cells were immobilized with an immobilization buffer, in which acetone, 37% formaldehyde, and citric acid solution were mixed, for 30 seconds. The following staining was carried out using the leukocyte alkaline phosphatase staining kit (SIGMA).
The cells were treated with a mixture, in which an FBB-alkaline solution was mixed with a sodium nitrite solution at 1:1, for 2 minutes, and then treated with a buffer composed of distilled water and naphthol AS-BI alkaline solution, followed by color development in an incubator at 37° C. for 1 hour.

Wnt3a = assay: Western blotting of hair growth protein Wnt3a; format: cell-based, human; details: HFDPC, 0.1-50 μg/ml, 24 hours
Protocol: (§2) In order to observe the changes in the expression of IGF1, KGF, and Wnt3a, which are proteins involved in the development of hair roots in the human hair follicle dermal papilla cells, the cells were treated with the peptides of the present invention for 24 hours, and then subjected to western blotting using specific antibodies, thereby observing the changes in hair growth-related proteins.
(§3) The cells were stabilized by the incubation overnight, and then treated with the peptides at different concentrations (0.1-50 μg/ml) for 24 hours. The cells were treated with the cell lysis buffer to obtain a lysate, followed by protein quantification, and then western blotting was performed with respect to IGF-1, KGF, and Wnt3a.
(§4) The test was carried out using anti-IGF-1 antibody (Santa Cruz Biotechnology, USA), anti-KGF antibody (Santa Cruz Biotechnology, USA), and anti-Wnt3a antibody (Santa Cruz Biotechnology, USA).

IL-1β = IL-1β ELISA in THP-1 cells treated with TNF-α; format: cell-based, human; details: 10 μg/ml pre-treatment 30 minutes, 50 ng/ml TNF-α, 24 hours
Protocol: The human monocytes, THP-1 cells were seeded on a 24-well plate at a density of 2×10^6 cells/well. After incubation overnight, the cells were pre-treated with the samples at 10 μg/ml for 30 minutes, and treated with 50 ng/ml TNF-α, followed by incubation for 24 hours. The cell incubation medium was obtained, followed by centrifugation at 13,000 rpm for 10 minutes at 4° C., and then the supernatant was separated. ELISA was carried out using IL-1b and IL-8 ELISA kit (R&D system).

NF-κB = assay: Western blotting in HaCaT cells, nuclear translocation of NF-κB activated by TNF-α; format: cell-based, human; details: peptide at different concentrations
Ha3-II and keratin 14 = assay: RT-PCR of keratinocyte differentiation markers in HaCaT cells; format: cell-based, human; details: HaCaT, 0.1, 1 and 10 μg/ml, 24 hours
Protocol: The cells were treated with the peptides at different concentrations (0.1 μg/ml, 1 μg/ml, and 10 μg/ml), and then incubated in an incubator at 37° C. for 24 hours. […] RT-PCR was carried out using primers of respective markers (Ha3-II and keratin 14) and PCR pre-mix (Intron) to measure the changes in the expression of the markers.
Target-specific primer sequences used in PCR for keratinocyte differentiation markers were as follows: Ha3-II forward primer sequence, 5′-[…]-3′ and Ha3-II reverse primer, 5′-[…]-3′ (annealing temperature, 60° C.); Keratin14 forward primer sequence, 5′-[…]-3′ and Keratin14 reverse primer, 5′-[…]-3′ (annealing temperature, 60° C.)

Phospho-PI3K = assay: Western blotting using osteoblasts (PI3K phosphorylation); format: cell-based; details: mouse osteoblast line, 50 μg/ml, 15 minutes
Protocol: The cells were treated with the peptides at 50 μg/ml for 15 minutes (positive control: HGF 50 ng/ml). The cells were treated with the cell lysis buffer to obtain a lysate, followed by protein quantification, and then western blotting was performed with respect to Phospho-PI3K (P-PI3K) using anti-pPI3K antibody (Santa Cruz Biotechnology, USA).

[3] = system: alkaline phosphatase (ALP); details: MC3T3-E1, three days, RT-PCR
Protocol: MC3T3-E1 (mouse osteoblast line) cells were seeded on a 6-well plate at a cell density of 1×10^5 cells/well. The cells incubated overnight were treated with the peptides at different concentrations (10 and 50 μg/ml), followed by incubation in an incubator at 37° C. for three days (positive control: 100 ng/ml BMP2 (Cell signaling)). After the incubation-completed cells were collected, the cells were treated with RNA extraction solution (Easy Blue, Intron) to prepare RNA, and then cDNA was synthesized using RT pre-mix (Intron). PCR was carried out using primers of respective markers (OPG, ALP, BSP) and PCR pre-mix (Intron).
Target-specific primer sequences used in PCR for osteogenic differentiation markers were as follows: OPG forward primer sequence, 5′-[sequence]-3′ and OPG reverse primer, 5′-[sequence]-3′ (annealing temperature, 60° C.); ALP forward primer sequence, 5′-[sequence]-3′ and ALP reverse primer, 5′-[sequence]-3′ (annealing temperature, 60° C.); BSP forward primer sequence, 5′-[sequence]-3′ and BSP reverse primer, 5′-[sequence]-3′ (annealing temperature, 60° C.)
5 μl of PCR product was loaded on 1% agarose gel, followed by electrophoresis, and then the bands were investigated using Gel-Doc.

KGF = assay: Western blotting of hair growth protein KGF; format: cell-based, human; details: HFDPC, 0.1-50 μg/ml, 24 hours
Protocol: as §2, §3, §4

HGFR = target: T1, HGFR (Homo sapiens, UniProt P08581); assay: Receptor binding assay (HGFR), ELISA; details: peptide coated 50 μg/25 μl, O.D. 450 nm
T1 construct: purchased R&D Systems
T1 sequence (P08581 25-1390): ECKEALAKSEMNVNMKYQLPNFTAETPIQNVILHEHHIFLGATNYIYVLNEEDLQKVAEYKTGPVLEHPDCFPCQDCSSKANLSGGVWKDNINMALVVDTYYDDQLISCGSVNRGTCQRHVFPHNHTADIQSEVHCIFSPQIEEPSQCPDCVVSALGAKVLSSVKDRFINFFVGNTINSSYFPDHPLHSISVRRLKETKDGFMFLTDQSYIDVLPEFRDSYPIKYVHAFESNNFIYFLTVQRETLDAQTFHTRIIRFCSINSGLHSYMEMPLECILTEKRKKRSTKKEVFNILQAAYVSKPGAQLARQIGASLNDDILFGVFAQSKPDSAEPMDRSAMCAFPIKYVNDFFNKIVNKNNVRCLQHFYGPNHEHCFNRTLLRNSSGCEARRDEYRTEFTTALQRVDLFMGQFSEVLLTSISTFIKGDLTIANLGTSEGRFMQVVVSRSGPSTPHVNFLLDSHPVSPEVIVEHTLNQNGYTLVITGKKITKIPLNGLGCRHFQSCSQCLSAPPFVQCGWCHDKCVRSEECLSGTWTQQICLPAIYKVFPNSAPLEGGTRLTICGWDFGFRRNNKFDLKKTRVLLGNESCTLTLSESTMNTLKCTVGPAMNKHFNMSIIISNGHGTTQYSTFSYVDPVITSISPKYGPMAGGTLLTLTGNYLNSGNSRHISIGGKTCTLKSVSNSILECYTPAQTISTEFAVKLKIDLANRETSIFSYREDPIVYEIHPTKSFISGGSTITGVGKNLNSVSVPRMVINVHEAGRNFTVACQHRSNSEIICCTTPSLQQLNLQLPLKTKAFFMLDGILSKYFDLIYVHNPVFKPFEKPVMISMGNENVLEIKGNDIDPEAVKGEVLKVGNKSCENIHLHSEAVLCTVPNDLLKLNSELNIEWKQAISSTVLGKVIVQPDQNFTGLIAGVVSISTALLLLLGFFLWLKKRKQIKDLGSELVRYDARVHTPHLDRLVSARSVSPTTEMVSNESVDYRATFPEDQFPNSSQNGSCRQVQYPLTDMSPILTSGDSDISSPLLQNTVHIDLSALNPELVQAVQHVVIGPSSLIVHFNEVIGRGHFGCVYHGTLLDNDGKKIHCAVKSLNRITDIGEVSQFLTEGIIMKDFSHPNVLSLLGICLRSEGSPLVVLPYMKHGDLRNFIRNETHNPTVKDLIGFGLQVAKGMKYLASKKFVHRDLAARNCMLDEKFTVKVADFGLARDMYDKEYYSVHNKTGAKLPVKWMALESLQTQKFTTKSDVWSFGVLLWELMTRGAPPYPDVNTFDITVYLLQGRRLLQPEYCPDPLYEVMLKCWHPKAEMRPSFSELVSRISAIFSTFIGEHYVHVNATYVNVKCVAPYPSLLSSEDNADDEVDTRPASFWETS
Protocol: On an ELISA plate, 50 μg/25 μl peptide and 25 μl of a coating buffer (20 mM sodium phosphate pH 9.6) were added and mixed, and then incubated at 4° C. overnight. After washing three times with PBST (300 μl), the blocking with 200 μl of a blocking buffer (3% BSA) was carried out at room temperature for 2 hours. After washing three times with PBST (300 μl), HGFR (R&D Systems) was added at 0.5 μg/1 ml per well, followed by incubation at room temperature for 2 hours. After washing three times with PBST (300 μl), anti-human IgG-HRP was diluted at 1:1,000, which was then added at 100 μl per well, followed by incubation at room temperature for 2 hours. After washing three times with PBST (300 μl), 100 μl of TMB solution was added, followed by color development. 50 μl of a stop solution (3 N H2SO4) was added to stop the reaction, and then the absorbance was read at O.D. 450 nm.

Substance: NH2-Ala-Cys-Arg-Ser-Ala-Ile-Gly-Arg-Pro-Cys-COOH (H-ACRSAIGRPC-OH; cysteine pairing not given here) [SEQ ID NO: 1]
- cell proliferation, HFDPC [1]: increased in a concentration-dependent manner
- cell proliferation, HUVEC [2]: increased in a concentration-dependent manner
- ALP expression (ALP staining) (MC3T3-E1 cells): increased
- expression of Wnt3a (Wnt3a): increased
- expression of IL-1β increased by TNF-α treatment (IL-1β): inhibited
- nuclear translocation of NF-κB activated by TNF-α treatment (NF-κB): reduced
- mRNA expression levels of differentiation markers Ha3-II and keratin 14 (Ha3-II and keratin 14): keratinocyte differentiation promoting effect
- phosphorylation of PI3K by HGFR signal stimulation (Phospho-PI3K): increased
- expression of alkaline phosphatase (ALP) [3]: increased
- expression of KGF (KGF): increased
- binding affinity on HGFR (HGFR): high binding affinity

Reference: patent US10238710B2, “Peptide having anti-inflammatory, osteogenic and hair growth promoting activities, and use of same” (CAREGEN CO., LTD., priority 2014, dated 2019)
